Results as given in patent US20220168430A1, “THERAPEUTIC METHODS FOR TREATING HEPATITIS B” (priority 2019, published 2022).
Where two headings read alike, the source gives them in different places.

System: HBV rcDNA
Assay: Dual agent combination in HepDE19 cells, rcDNA by Quantigene 2.0 bDNA assay (Examples 5-8)
Type: cell-based, HBV; HepDE19 (HepG2 human hepatocarcinoma derived)
Conditions: Hepatitis B virus; for inhibition at 0.005 µM: Compound 1 0.005 μM alone; for inhibition at 0.01 µM: Compound 1 0.010 μM alone; for inhibition at 0.02 µM: Compound 1 0.020 μM alone; for inhibition at 0.039 µM: Compound 1 0.039 μM alone; for inhibition at 0.156 µM: Compound 1 0.156 μM alone
Description: In vitro dual agent combination studies were conducted using the method of Prichard and Shipman 1990 (Prichard M N, Shipman C, Jr. 1990. Antiviral Res 14:181-205). The HepDE19 cell culture system is a HepG2 (human hepatocarcinoma) derived cell line that supports HBV DNA replication and cccDNA formation under control the control of a CMV Tet-off promoter system (Guo et al. 2007. J Virol 81:12472-84). HepDE19 (50,000 cells/well) were plated in 96 well collagen-coated tissue-culture treated microtiter plates in DMEM/F12 medium supplemented with 10% fetal bovine serum+1% penicillin-streptomycin with tetracycline (1 μg/mL) and incubated in a humidified incubator at 37° C. and 5% CO2 overnight. Next day, the cells were switched to fresh medium without tetracycline and incubated for 4 hrs at 37° C. and 5% CO2. The cells were switched to fresh medium and treated with inhibitor A and inhibitor B, at concentration range spanning their respective EC50 values. […] The two inhibitors were tested both singly as well as in combinations in a checkerboard fashion such that each concentration of inhibitor A was combined with each concentration of inhibitor B to determine their combination effects on inhibition of rcDNA production. There were four replicates of each concentration combination in each experiment. The plates were incubated for 7 days in a humidified incubator at 37° C. and 5% CO2. The level of rcDNA present in the wells was measured using a Quantigene 2.0 bDNA assay kit (Affymetrix, Santa Clara, Calif.) with HBV specific custom probe set (genotype D ayw) and according to the manufacturer's instructions and read using a luminescence plate reader and the relative luminescence units (RLU) data generated from each well was calculated as % inhibition of the untreated control wells and analyzed using the MacSynergy II program to determine whether the combinations were synergistic, additive or antagonistic using the interpretive guidelines established by Prichard and Shipman (Prichard M N, Shipman C, Jr. 1990. […] Each experiment was repeated at least three times and the averages and standard deviations of individual determinations was calculated to derive the conclusion. Concurrently, in each experiment, the effect of inhibitor combinations on cell viability was assessed using replicate plates in triplicates that were used to determine the ATP content as a measure of cell viability using the Cell-Titer Glo reagent (Promega, Madison, Wis.) as per the manufacturer's instructions.

[1] = HepDE19, Expt 2, read-out: AVERAGE % INHIBITION
[2] = HepDE19, Expt 3 (with ETV), read-out: ADDITIVE INHIBITION
[3] = HepDE19, Expt 3 (with ETV), read-out: AVERAGE % INHIBITION
[4] = HepDE19, Expt 3 (with TDF), read-out: ADDITIVE INHIBITION
[5] = HepDE19, Expt 3 (with TDF), read-out: AVERAGE % INHIBITION

## Cn1cnc(COC(=O)N[C@H]2CCc3c(C(=O)Nc4ccc(F)c(Cl)c4)ccc(F)c32)n1 [Compound 1]
[1]
  inhibition at 0.005 µM: 7.51%
  inhibition at 0.01 µM: 26.3%
  inhibition at 0.02 µM: 40.8%
  inhibition at 0.039 µM: 39.8%
  inhibition at 0.156 µM: 87.4%
HepDE19, Expt 2, Compound 1 1.250 μM alone, read-out: AVERAGE % INHIBITION
  inhibition at 1.25 µM: 98.4%
[2]
  inhibition at 0.005 µM: -5.5%
  inhibition at 0.01 µM: 6.89%
  inhibition at 0.02 µM: 14.2%
  inhibition at 0.039 µM: 43.7%
  inhibition at 0.156 µM: 80.6%
[3]
  inhibition at 0.005 µM: -5.5%
  inhibition at 0.01 µM: 6.89%
  inhibition at 0.02 µM: 14.2%
  inhibition at 0.039 µM: 43.7%
  inhibition at 0.156 µM: 80.6%
HepDE19, Expt 3 (with ETV), Compound 1 1.25 μM alone, read-out: ADDITIVE INHIBITION
  inhibition at 1.25 µM: 98.1%
HepDE19, Expt 3 (with ETV), Compound 1 1.25 μM alone, read-out: AVERAGE % INHIBITION
  inhibition at 1.25 µM: 98.1%
[4]
  inhibition at 0.005 µM: 18.8%
  inhibition at 0.01 µM: 27.3%
  inhibition at 0.02 µM: 44.5%
  inhibition at 0.039 µM: 66.8%
  inhibition at 0.156 µM: 83.6%
[5]
  inhibition at 0.005 µM: 18.8%
  inhibition at 0.01 µM: 27.3%
  inhibition at 0.02 µM: 44.5%
  inhibition at 0.039 µM: 66.8%
  inhibition at 0.156 µM: 83.6%
HepDE19, Expt 3 (with TDF), Compound 1 1.250 μM alone, read-out: ADDITIVE INHIBITION
  inhibition at 1.25 µM: 98.8%
HepDE19, Expt 3 (with TDF), Compound 1 1.250 μM alone, read-out: AVERAGE % INHIBITION
  inhibition at 1.25 µM: 98.8%
HepDE19, Expt 3, Cmpd 1 0.007 μM alone, read-out: AVERAGE % INHIBITION
  inhibition at 0.007 µM: 6.78%
HepDE19, Expt 3, Cmpd 1 0.067 μM alone
  inhibition at 0.067 µM: 64.7%
HepDE19, Expt 3, Cmpd 1 0.200 μM alone
  inhibition at 0.2 µM: 92.7%
HepDE19, Expt 3, Cmpd 1 0.600 μM alone
  inhibition at 0.6 µM: 97.4%
HepDE19, Expt 3, Compound 1 0.007 μM alone, read-out: AVERAGE % INHIBITION
  inhibition at 0.007 µM: -51.7%
HepDE19, Expt 3, Compound 1 0.067 μM alone
  inhibition at 0.067 µM: 51.8%
HepDE19, Expt 3, Compound 1 0.200 μM alone
  inhibition at 0.2 µM: 85.5%
HepDE19, Expt 3, Compound 1 0.600 μM alone
  inhibition at 0.6 µM: 94.6%
HepDE19, Expt 4, Compound 1 0.007 μM alone, read-out: AVERAGE % INHIBITION
  inhibition at 0.007 µM: 11.7%
HepDE19, Expt 4, Compound 1 0.067 μM alone
  inhibition at 0.067 µM: 52.8%
HepDE19, Expt 4, Compound 1 0.200 μM alone
  inhibition at 0.2 µM: 90%
HepDE19, Expt 4, Compound 1 0.600 μM alone
  inhibition at 0.6 µM: 96.4%
